# In patent US8372848B2, “Melanin-concentrating hormone receptor antagonists and methods of use” (Mixture Sciences, Inc., priority 2004, dated 2013):
# Assays:
# rats [1] = experiment: Spontaneous food and water intake after 1 hour deprivation, Example VIII; type: in vivo, rat; conditions: 10 nM i.c.v., start of dark cycle; for 30 minute food intake following 1 hour food/water deprivation, TPI treated versus control: b181 words it as control greater than treated, p less than 0.005
# Procedure: In this example, adult male Sprague-Dawley rats, weighing 350-400 g were randomly divided into two (2) groups of eight (8) rats each (Groups I and II). The animals were housed individually in a room having an ambient temperature of 20 degrees C., a light cycle from 07:00 to 19:00 each day and a dark cycle from 19:00 to 07:00.
# In a first experiment, food (rat chow) and water were made available ad libitum except during a 1 hour food/water deprivation period from 18:00 to 19:00. At the end of the 1 hour food/water deprivation period the animals in Group I (n=8) received 0.9% saline by i.c.v. injection and the animals in Group II (n−8) received 10 nM TPI 1361-17 (Formula IV) by i.c.v. injection. Immediately after dosing, and upon commencement of the darkness cycle, food (rat chow) and water were again made available ad libitum and food and water intake were measured for the next thirty (30) minutes. Data were compared using the non-parametric t-Test with the 0.05 level of probability and below being defined as significant.
# rats [2] = experiment: Spontaneous food intake after icv administration, Example IV; type: in vivo, rat; conditions: 5 nmol icv
# Procedure: To determine inhibitory effects of TPI 1361-17 on spontaneous food intake, TPI 1361-17 (5 nmol) was administered icv and food intake was measured 0.5 h, 1 h, 2 h, and 4 h after the injection. Food intake was quantified either at the start of either the dark phase, which is considered similar to natural conditions, or the light phase. To synchronize initiation of the food intake and to measure the efficiency of TPI 1361-17, rat food pellets were removed for different lengths of time before the injection. It was observed that TPI 1361-17 reduced spontaneous food intake of rats that have been fasted for 1 hr before the dark phase by 37%. This inhibitory effect was detected within the first 30 minutes of feeding and is not detected later (FIG. 6A).
# The two groups of rats that were tested at the beginning of the dark phase were starved for 1 h or 4 h before, being injected with 5 nmol of antagonist or ACSF between 6:00-7:00 p.m. Animals had free access to water. Fifteen minutes after injection, container of regular low-fat diet were placed in the cage, and food consumption was monitored for 4 h. The group of rats that were injected at the beginning of the light phase was starved overnight before being injected at 5 nmol of antagonist or ACSF. Monitoring of the food consumption was identical to that described for the rats starved during the dark phase.
# For animal studies, adult male Sprague-Dawley rats weighing 200-300g were obtained from Charles River Laboratories (Wilmington, Mass.), bearing a 23-gauge stainless steel cannula placed into the right lateral ventricle. Rats were housed individually and maintained on a 12 h light-dark cycle (6:00 am-6:00 pm light) with free access to tap water and rat chaw (PROLAB RMH 2500, containing 23.0% protein, 4.5% fat, gross energy 4.5 kcal/g. PMI nutrition international, LLC. Brentwood, Mo.). […]
# neuropeptide Y2 = target: T1, neuropeptide Y2 (Homo sapiens, UniProt P49146); experiment: Selectivity versus neuropeptide Y2; type: cell-based
# T1 sequence (P49146 1-381): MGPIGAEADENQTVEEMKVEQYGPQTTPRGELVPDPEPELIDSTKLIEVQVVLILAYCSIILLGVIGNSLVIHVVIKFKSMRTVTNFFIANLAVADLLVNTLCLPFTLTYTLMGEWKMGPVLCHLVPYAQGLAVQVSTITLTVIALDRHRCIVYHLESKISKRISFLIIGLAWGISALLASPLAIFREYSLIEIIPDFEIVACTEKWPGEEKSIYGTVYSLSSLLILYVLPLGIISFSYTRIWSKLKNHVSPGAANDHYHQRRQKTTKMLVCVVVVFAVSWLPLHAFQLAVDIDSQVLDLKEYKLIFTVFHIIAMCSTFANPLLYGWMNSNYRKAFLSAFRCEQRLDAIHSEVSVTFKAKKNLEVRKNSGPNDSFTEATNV
structure (smiles),measurement,setting,value
"C[C@@H](CNCc1ccccc1)N1C[C@H](CCCNC(=N)N)N(CCc2cccc(F)c2)C1=S [TPI 1361-17, N-(3-{(4S)-1-[(1S)-2-(benzylamino)-1-methylethyl]-3-[2-(3-fluorophenyl)ethyl]-2-thioxoimidazolidin-4-yl}propyl)guanidine]","30 minute water intake following 1 hour food/water deprivation, TPI treated versus control",rats [1],not significantly different
same,"30 minute food intake following 1 hour food/water deprivation, TPI treated versus control",rats [1],significantly greater
same,"30 minute food intake following 1 hour food/water deprivation, TPI treated versus control",rats [1]; listed as TPI,significant decrease
same,"30 minute water intake following 1 hour food/water deprivation, TPI treated versus control",rats [1]; listed as TPI,non-significant decrease
same,Reduction of spontaneous food intake,"rats [2]; fasted 1 hr before dark phase, first 30 minutes of feeding",37%
same,Effect on spontaneous food intake,rats [2]; fasted 4 h before the dark phase,no apparent effect
same,Effect on spontaneous food intake,rats [2]; fasted 12 hrs before the light phase,no apparent effect
same,Selectivity for MCH1R compared with neuropeptide Y2,neuropeptide Y2,"more than 1,000 fold"
